Measured values published in PMC4447944 (The Journal of Biological Chemistry, 2015).

Columns and labels:
[1] = test system: 454 kinases, 35 G protein-coupled receptors, 14 nuclear hormone receptors, and three cytochrome P450 enzymes; test: Off-target profiling summary; details: 35 GPCRs
Description: The compound was further profiled against 454 kinases, […], 14 nuclear hormone receptors, and three cytochrome P450 enzyme targets (supplemental Tables 2–4). The only inhibitory activity that was noted (at 98% at 10 μM) targeted the calcium mobilization antagonist mode of hADRα1A, a member of the G protein-coupled receptor family involved in epinephrine signaling.

[2] = biological target: T1, hAKT2 (Homo sapiens, UniProt P31751); test: KINOMEscan; format: binding
T1 construct: purchased DiscoverX

[3] = biological target: T2, hAKT3 (Homo sapiens, UniProt Q9Y243); test: KINOMEscan; format: binding
T2 construct: purchased DiscoverX

[4] = biological target: T3, hCAMK2B (Homo sapiens, UniProt Q13554); test: KINOMEscan; format: binding
T3 construct: purchased DiscoverX

[5] = biological target: T4, hCHEK1 (Homo sapiens, UniProt O14757); test: KINOMEscan; format: binding
T4 construct: purchased DiscoverX

[6] = biological target: T5, hCSNK2A2 (Homo sapiens, UniProt P19784); test: KINOMEscan; format: binding
T5 construct: purchased DiscoverX (KINOMEscan platform)

[7] = biological target: T6, hERBB4 (Homo sapiens, UniProt Q15303); test: KINOMEscan; format: binding
T6 construct: purchased DiscoverX

[8] = biological target: T7, hFLT3(D835H) (Homo sapiens, UniProt P36888, D835H); test: KINOMEscan; format: binding
T7 construct: purchased DiscoverX

[9] = biological target: T8, hGSK3A (Homo sapiens, UniProt P49840); test: KINOMEscan; format: binding
T8 construct: purchased DiscoverX

[10] = biological target: T9, hJAK1(JH2Dom.-pseudokinase) (Homo sapiens, UniProt P23458); test: KINOMEscan; format: binding
T9 construct: hJAK1(JH2Dom.-pseudokinase); purchased DiscoverX (KINOMEscan panel)

[11] = biological target: T10, hKIT (Homo sapiens, UniProt P10721); test: KINOMEscan; format: binding
T10 construct: purchased DiscoverX (KINOMEscan panel)

[12] = biological target: T11, hKIT(A829P) (Homo sapiens, UniProt P10721, A829P); test: KINOMEscan; format: binding
T11 construct: purchased DiscoverX (KINOMEscan panel)

[13] = biological target: T12, hLIMK1 (Homo sapiens, UniProt P53667); test: KINOMEscan; format: binding
T12 construct: purchased DiscoverX (KINOMEscan platform)

[14] = biological target: T13, hLRRK2 (Homo sapiens, UniProt Q5S007); test: KINOMEscan; format: binding
T13 construct: purchased DiscoverX (KINOMEscan platform)

[15] = biological target: T14, hMARK3 (Homo sapiens, UniProt P27448); test: KINOMEscan; format: binding
T14 construct: purchased DiscoverX

[16] = biological target: T15, hRIOK1 (Homo sapiens, UniProt Q9BRS2); test: KINOMEscan; format: binding
T15 construct: purchased DiscoverX (KINOMEscan platform)

[17] = biological target: T16, hRSK3(Kin.Dom.2-C-term) (Homo sapiens, UniProt Q15349); test: KINOMEscan; format: binding
T16 construct: hRSK3(Kin.Dom.2-C-term); purchased DiscoverX (KINOMEscan platform)

[18] = biological target: T17, hSRMS (Homo sapiens, UniProt Q9H3Y6); test: KINOMEscan; format: binding
T17 construct: purchased DiscoverX (KINOMEscan platform)

[19] = biological target: T18, hTESK1 (Homo sapiens, UniProt Q15569); test: KINOMEscan; format: binding
T18 construct: purchased DiscoverX

[20] = biological target: T19, hTGFBR1 (Homo sapiens, UniProt P36897); test: KINOMEscan; format: binding
T19 construct: purchased DiscoverX

[21] = biological target: T20, hTNIK (Homo sapiens, UniProt Q9UKE5); test: KINOMEscan; format: binding
T20 construct: purchased DiscoverX

[22] = biological target: T21, hYANK2 (Homo sapiens, UniProt Q9NY57); test: KINOMEscan; format: binding
T21 construct: purchased DiscoverX

[23] = biological target: T22, hADORA3 (Homo sapiens, UniProt P0DMS8); test: cAMP Potentiation (Eurofins-CEREP); details: @ 10 μM
T22 sequence (P0DMS8 1-318): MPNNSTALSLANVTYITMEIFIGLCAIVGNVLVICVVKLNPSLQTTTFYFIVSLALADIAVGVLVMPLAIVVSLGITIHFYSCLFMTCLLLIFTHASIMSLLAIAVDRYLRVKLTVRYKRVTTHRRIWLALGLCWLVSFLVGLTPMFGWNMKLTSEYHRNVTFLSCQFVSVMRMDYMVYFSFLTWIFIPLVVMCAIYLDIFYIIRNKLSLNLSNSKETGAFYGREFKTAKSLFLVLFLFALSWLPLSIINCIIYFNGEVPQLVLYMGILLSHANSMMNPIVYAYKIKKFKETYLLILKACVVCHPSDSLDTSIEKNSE

[24] = biological target: hH1 (Homo sapiens, UniProt P35367); test: Ca Mobilization Agonist (Eurofins-CEREP); details: @ 13.3 μM
[25] = biological target: T23, hADRα1A (Homo sapiens, UniProt P35348); test: Calcium Mobilization Agonist (Eurofins-CEREP); details: @ 13.3 μM
T23 sequence (P35348 1-466): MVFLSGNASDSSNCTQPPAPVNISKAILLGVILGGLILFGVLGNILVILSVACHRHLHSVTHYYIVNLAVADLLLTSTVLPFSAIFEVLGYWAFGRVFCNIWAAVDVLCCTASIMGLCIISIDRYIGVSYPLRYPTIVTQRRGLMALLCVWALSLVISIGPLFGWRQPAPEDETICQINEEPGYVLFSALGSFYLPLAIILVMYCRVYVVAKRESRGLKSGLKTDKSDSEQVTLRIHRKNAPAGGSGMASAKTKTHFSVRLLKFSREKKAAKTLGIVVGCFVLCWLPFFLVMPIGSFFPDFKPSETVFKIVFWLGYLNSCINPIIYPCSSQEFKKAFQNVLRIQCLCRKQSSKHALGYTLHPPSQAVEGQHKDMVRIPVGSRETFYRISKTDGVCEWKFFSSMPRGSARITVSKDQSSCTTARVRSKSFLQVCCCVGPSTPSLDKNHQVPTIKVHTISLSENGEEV

[26] = biological target: T23, hADRα1A; test: Calcium Mobilization Potentiation (Eurofins-CEREP); details: @ 10 μM

T13 sequence (Q5S007 whole entry): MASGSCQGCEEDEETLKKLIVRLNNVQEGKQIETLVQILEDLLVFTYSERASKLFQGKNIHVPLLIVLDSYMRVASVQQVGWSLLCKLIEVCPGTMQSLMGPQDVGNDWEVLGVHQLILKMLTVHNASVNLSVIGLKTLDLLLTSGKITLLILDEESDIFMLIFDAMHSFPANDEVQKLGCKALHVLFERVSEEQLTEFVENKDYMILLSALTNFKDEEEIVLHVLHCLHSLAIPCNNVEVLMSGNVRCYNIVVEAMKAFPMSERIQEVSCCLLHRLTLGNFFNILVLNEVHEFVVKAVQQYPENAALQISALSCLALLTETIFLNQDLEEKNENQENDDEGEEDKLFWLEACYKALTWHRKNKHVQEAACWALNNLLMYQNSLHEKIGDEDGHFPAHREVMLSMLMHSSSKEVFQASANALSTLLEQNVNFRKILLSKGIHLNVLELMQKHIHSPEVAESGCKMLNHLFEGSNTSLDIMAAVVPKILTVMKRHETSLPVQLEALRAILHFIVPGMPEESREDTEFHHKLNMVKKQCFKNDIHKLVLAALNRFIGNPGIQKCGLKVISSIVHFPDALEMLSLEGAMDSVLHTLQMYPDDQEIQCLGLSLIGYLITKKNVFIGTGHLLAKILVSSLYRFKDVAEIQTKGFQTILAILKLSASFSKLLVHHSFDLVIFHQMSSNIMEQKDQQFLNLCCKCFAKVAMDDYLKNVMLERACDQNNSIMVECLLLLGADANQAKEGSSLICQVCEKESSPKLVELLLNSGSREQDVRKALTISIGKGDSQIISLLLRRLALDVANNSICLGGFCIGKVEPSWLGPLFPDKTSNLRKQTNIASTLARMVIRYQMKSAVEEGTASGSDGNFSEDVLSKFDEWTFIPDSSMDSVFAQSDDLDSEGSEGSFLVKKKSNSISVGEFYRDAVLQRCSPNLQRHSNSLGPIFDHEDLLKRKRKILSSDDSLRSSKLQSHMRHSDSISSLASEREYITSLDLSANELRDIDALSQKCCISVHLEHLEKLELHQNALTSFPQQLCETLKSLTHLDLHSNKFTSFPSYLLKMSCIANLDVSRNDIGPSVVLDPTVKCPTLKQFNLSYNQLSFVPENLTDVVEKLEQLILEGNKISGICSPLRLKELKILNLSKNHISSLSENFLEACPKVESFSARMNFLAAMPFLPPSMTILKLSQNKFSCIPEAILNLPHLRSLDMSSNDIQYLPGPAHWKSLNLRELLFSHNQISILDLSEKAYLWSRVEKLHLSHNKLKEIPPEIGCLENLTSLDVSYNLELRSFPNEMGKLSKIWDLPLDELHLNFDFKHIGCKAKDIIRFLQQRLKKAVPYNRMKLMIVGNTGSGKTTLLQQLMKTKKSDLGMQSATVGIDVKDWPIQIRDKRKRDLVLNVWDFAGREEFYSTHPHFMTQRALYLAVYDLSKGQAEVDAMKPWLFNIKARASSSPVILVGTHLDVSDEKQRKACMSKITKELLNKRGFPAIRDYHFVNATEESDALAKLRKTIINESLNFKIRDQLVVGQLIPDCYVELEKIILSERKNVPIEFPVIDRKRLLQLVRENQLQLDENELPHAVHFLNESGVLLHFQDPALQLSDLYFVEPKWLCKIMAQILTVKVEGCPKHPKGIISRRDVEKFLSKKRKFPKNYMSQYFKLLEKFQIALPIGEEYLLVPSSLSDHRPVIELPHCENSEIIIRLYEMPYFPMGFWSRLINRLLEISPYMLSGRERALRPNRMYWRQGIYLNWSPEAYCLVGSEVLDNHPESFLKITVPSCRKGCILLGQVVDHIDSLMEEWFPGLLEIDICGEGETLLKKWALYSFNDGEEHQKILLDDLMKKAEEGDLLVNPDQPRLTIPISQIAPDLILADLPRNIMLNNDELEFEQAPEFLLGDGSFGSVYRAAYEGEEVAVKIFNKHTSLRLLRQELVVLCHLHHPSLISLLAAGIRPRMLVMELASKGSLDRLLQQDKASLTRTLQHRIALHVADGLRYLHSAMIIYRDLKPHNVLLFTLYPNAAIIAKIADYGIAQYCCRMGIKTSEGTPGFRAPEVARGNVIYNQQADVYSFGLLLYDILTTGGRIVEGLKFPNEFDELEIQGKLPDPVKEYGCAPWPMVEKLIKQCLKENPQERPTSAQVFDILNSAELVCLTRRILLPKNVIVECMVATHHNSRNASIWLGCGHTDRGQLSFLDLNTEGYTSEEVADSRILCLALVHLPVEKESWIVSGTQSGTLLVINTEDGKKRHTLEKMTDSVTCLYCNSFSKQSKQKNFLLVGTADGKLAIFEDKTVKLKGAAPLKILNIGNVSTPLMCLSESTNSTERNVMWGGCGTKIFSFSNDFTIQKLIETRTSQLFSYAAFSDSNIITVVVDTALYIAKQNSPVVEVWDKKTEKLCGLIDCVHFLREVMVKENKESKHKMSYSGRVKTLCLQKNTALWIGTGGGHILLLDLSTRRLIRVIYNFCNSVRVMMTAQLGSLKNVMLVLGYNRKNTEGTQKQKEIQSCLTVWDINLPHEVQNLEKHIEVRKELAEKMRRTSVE
T8 sequence (P49840 whole entry): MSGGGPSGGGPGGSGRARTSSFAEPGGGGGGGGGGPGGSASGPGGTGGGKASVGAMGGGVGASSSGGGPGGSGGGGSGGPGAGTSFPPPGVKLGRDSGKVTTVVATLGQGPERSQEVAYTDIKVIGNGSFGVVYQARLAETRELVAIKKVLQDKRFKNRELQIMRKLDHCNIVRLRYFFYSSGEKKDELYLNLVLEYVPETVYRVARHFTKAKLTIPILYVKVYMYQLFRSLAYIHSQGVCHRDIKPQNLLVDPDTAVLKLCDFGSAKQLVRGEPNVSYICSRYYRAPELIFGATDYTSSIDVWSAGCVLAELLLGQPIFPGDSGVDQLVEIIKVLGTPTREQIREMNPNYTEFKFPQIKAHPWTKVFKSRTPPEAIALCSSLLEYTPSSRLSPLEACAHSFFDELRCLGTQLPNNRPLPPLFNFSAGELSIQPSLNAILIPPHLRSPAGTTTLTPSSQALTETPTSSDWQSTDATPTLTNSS
T14 sequence (P27448 whole entry): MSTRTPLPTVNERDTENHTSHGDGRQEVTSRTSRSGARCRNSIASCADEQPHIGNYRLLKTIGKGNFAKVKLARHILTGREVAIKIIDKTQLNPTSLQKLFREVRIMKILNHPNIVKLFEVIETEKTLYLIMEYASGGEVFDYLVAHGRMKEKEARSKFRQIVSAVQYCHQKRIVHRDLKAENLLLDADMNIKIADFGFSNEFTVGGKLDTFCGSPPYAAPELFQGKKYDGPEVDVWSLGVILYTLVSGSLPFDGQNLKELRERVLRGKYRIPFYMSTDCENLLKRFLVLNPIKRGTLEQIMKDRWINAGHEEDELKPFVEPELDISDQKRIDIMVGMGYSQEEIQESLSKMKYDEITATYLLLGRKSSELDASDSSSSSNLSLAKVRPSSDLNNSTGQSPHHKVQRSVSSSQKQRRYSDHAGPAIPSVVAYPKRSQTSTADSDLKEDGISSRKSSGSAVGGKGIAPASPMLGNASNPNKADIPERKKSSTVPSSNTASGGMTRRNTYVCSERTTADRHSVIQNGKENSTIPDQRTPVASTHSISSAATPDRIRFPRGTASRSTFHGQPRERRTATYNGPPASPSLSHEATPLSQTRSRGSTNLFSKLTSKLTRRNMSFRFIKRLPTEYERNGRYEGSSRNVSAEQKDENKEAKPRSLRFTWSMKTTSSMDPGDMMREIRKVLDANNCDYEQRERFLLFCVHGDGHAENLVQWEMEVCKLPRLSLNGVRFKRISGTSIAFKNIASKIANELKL
T2 sequence (Q9Y243 whole entry): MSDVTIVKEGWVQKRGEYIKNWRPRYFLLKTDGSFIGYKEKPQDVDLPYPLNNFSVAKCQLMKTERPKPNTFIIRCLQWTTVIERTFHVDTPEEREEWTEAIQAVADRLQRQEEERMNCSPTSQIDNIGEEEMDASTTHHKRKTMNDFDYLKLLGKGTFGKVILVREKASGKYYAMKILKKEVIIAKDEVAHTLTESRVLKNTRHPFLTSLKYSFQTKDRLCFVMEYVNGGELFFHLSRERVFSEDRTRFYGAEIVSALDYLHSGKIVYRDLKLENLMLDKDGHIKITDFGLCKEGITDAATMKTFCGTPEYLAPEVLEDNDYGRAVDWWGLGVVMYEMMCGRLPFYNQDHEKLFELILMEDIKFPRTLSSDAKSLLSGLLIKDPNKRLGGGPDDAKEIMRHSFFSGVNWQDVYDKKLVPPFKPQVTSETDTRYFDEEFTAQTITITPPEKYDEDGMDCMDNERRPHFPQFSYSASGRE
T12 sequence (P53667 whole entry): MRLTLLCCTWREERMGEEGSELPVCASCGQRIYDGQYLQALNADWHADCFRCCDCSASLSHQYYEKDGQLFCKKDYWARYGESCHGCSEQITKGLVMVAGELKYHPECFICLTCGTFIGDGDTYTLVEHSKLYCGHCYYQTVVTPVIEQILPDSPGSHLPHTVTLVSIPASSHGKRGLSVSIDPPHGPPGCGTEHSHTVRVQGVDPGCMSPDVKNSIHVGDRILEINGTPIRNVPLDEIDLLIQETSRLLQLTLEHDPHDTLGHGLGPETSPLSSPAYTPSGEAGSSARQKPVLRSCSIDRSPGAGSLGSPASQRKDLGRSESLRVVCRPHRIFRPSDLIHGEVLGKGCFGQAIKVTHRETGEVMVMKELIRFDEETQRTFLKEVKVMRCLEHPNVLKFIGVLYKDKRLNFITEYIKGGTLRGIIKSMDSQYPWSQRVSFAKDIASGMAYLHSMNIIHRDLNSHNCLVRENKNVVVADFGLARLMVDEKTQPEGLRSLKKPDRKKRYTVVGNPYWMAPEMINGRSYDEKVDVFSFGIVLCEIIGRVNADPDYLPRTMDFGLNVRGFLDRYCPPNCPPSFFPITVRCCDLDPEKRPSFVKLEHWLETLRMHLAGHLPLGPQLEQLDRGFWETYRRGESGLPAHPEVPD

Cc1cn(CCN2CCN(c3ccccc3-c3cc(C#N)cc(C(=O)NCCCN4CCCC4)c3)CC2)c2ccccc12 [LLY-507, 3-cyano-5-{2-[4-[2-(3-methylindol-1-yl)ethyl]piperazin-1-yl]-phenyl}-N-[(3-pyrrolidin-1-yl)propyl]benzamide]
-1.9%: % Effect, Stimulation [25]
> 20 µM: inactive against off-target panels [1] | IC50 [2] | IC50 [3] | IC50 [4] | IC50 [5] | IC50 [6] | IC50 [7] | IC50 [8] | IC50 [9] | IC50 [10] | IC50 [11] | IC50 [12] | IC50 [13] | IC50 [14] | IC50 [15] | IC50 [16] | IC50 [17] | IC50 [18] | IC50 [19] | IC50 [20] | IC50 [21] | IC50 [22]
-2.8%: % Effect, Stimulation [24]
-7.9%: % Effect, Potentiation [26]
-7.3%: % Effect, Potentiation [23]
